Results on one molecule are retold here after ChEMBL document CHEMBL6182913, “Design of Potent Small-Molecule Stimulator of Interferon Gene Inhibitor and Stimulator of Interferon Gene Mutant-Specific Degrader” (J Med Chem, 2025).

For series [1], the target named is T1, Stimulator of interferon genes protein (Homo sapiens, UniProt Q86WV6). As to the kind of experiment: Inhibition of cGAMP-induced STING R232 mutant transfected human THP-1 cells preincubated with compound for 6 hrs followed by cGAMP addition and measured after 18 hrs by QUANTI-Luc based microplate reader analysis. The series is classed as cell-based.
Target sequence in this assay (Q86WV6 whole entry, looked up, change not shown): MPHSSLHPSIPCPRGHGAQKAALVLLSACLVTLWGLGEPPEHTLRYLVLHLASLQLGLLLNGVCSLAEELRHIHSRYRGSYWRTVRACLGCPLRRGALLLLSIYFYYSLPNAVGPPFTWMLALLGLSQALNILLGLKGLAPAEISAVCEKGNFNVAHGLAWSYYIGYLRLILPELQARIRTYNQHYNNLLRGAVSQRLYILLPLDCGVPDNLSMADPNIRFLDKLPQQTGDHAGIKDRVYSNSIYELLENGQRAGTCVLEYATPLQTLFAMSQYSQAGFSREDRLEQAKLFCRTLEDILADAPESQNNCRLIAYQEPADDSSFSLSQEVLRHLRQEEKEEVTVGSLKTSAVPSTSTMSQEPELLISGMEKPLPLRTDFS
Series [2] is described as follows: Cmax in mouse at 20 mg/kg, po by LC-MS/MS analysis. It is filed as ADME, organism-based. Particulars: in vivo, po, 20 mg/kg.
Series [3] deals with T2, Stimulator of interferon genes protein (Mus musculus, UniProt Q3TBT3).
T2 sequence (Q3TBT3 whole entry): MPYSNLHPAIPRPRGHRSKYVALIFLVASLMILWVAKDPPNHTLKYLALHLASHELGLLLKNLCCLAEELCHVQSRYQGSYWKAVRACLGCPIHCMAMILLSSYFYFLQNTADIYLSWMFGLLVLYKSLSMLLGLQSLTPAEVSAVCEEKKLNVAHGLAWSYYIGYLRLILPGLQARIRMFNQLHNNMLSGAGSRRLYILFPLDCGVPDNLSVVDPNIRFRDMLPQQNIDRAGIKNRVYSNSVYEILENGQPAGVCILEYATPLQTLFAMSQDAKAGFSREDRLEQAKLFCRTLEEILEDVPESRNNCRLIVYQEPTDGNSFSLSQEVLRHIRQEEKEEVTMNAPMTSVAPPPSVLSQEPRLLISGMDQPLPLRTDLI
As to the kind of experiment: Inhibition of cGAMP-induced mouse STING transfected in human THP-1 cells preincubated with compound for 6 hrs followed by cGAMP addition and measured after 18 hrs by QUANTI-Luc based microplate reader analysis. The series is classed as cell-based.

The nature of series [4]: Metabolic stability in mouse plasma assessed as half life in presence of NADPH by LC-MS/MS analysis. It is filed as ADME, cell-free.
Series [5] deals with Stimulator of interferon genes protein (Homo sapiens), Q86WV6 [UNDEFINED MUTATION]. Briefly: Induction of STING M155 mutant degradation in human THP-1 cells at 1 uM incubated for 48 hrs by Western blotting analysis. It is filed as cell-based. (A western blot detects proteins with antibodies after separation by electrophoresis.)
The target of series [6] is T3, Stimulator of interferon genes protein (Mus musculus) (UniProt Q3TBT3).
T3 sequence (whole entry): T2 sequence (Q3TBT3 whole entry)
As to the kind of experiment: Inhibition of STING in mouse BMDM cells assessed as inhibition of poly(I:C) -induced IFN-beta release at 0.05 to 0.5 uM pretreated with compound for 6 hrs followed by poly(I:C) addition and measured after 18 hrs by ELISA. The note with it: dose 0.05-0.5 µM, time 24.0 hrs. The series is classed as cell-based. A general note: ELISA stands for enzyme-linked immunosorbent assay.

In series [7] the test system is Stimulator of interferon genes protein (Homo sapiens), Q86WV6 [UNDEFINED MUTATION]. As to the kind of experiment: Induction of STING S154 mutant degradation in human THP-1 cells by measuring maximum efficacy at 0.01 to 10 uM incubated for 24 hrs by Western blotting analysis relative to control. It is filed as cell-based. Particulars: dose 0.01-10 µM.
The target of series [8] is T3, Stimulator of interferon genes protein (Mus musculus). Briefly: Inhibition of STING in mouse BMDM cells assessed as inhibition of ODN 2395-induced IFN-beta release at 0.05 to 0.5 uM pretreated with compound for 6 hrs followed by ODN 2395 addition and measured after 18 hrs by ELISA. The series is classed as cell-based. The note with it: dose 0.05-0.5 µM, time 24.0 hrs.

The test system of series [9] is Stimulator of interferon genes protein (Homo sapiens), Q86WV6 [UNDEFINED MUTATION]. As to the kind of experiment: Induction of STING M155 mutant degradation in human THP-1 cells at 1 uM preincubated with Baf A1 for 2 hrs followed by compound addition and measured after 22 hrs by Western blotting analysis. The series is classed as cell-based.
Series [10] has the same test system. Briefly: Induction of STING M155 mutant degradation in human THP-1 cells at 1 uM incubated for 12 hrs by Western blotting analysis. It is filed as cell-based.
A short description of series [11]: Metabolic stability in mouse liver microsomes assessed as half life at 10 uM in presence of NADPH by LC-MS/MS analysis. The series is classed as ADME, Microsome. (Liver microsomes are a subcellular fraction often used to study metabolism.)
The target of series [12] is T1, Stimulator of interferon genes protein. Briefly: Induction of STING S154 mutant degradation in human THP-1 cells incubated for 24 hrs by Western blotting analysis. The series is classed as cell-based.
Target sequence in this assay (Q86WV6 whole entry, looked up, change not shown): as the sequence (Q86WV6 whole entry, looked up, change not shown) above
The subject of series [13] is Stimulator of interferon genes protein (Homo sapiens), Q86WV6 [UNDEFINED MUTATION]. Briefly: Induction of STING M155 mutant degradation in human THP-1 cells at 5 uM incubated for 24 hrs by global proteomics analysis. The series is classed as cell-based.
Series [14] has as its target T1, Stimulator of interferon genes protein. Briefly: Inhibition of STING activation in human THP1-Blue ISG cells assessed as inhibition of c-GAMP-induced STING dimerization at 0.1 to 1 uM preincubated with compound for 6 hrs followed by cGAMP addition and measured after 3 hrs by Western blotting analysis. It is filed as cell-based. Particulars: dose 0.1-1 µM, time 9.0 hrs.
Target sequence in this assay (Q86WV6 whole entry): as the sequence (Q86WV6 whole entry, looked up, change not shown) above

The subject of series [15] is Stimulator of interferon genes protein (Homo sapiens), Q86WV6 [UNDEFINED MUTATION]. Briefly: Induction of STING M155 mutant degradation in human THP-1 cells at 0.5 uM preincubated with rapamycin for 2 hrs followed by compound addition and measured after 14 hrs by Western blotting analysis. It is filed as cell-based.
Series [16] shares this test system. Briefly: Induction of STING S154 mutant degradation in human THP-1 cells at 1 uM incubated for 48 hrs by Western blotting analysis. The series is classed as cell-based.
For series [17], the target named is T1, Stimulator of interferon genes protein. As to the kind of experiment: Inhibition of cGAMP-induced STING S154 mutant transfected in human THP-1 cells preincubated with compound for 6 hrs followed by cGAMP addition and measured after 18 hrs by QUANTI-Luc based microplate reader analysis. The series is classed as cell-based.
Target sequence in this assay (Q86WV6 whole entry, looked up, change not shown): as the sequence (Q86WV6 whole entry, looked up, change not shown) above

pIC50: −log10 of the molar value. Active and inactive are the calls of the source. The calls are words filed in the database; no cut-off is given here.

Stimulator of interferon genes protein (Homo sapiens), Q86WV6 [UNDEFINED MUTATION], sequence (Q86WV6 whole entry, looked up, stated change not applied): as the sequence (Q86WV6 whole entry, looked up, change not shown) above

With `COc1ccc2c(c1)C(=O)N(c1ccc(C(C)(C)C)c(F)c1)C(c1cc3cc(-c4ccc(C(=O)Nc5ccc(O)c(NS(C)(=O)=O)c5)cc4)ccc3o1)C2C(N)=O` (stereo not drawn), the pIC50 in [1] was 7.52; in series [3] it was 7.52; in series [17], 6.55. The Cmax in [2] was found to be 293 ng/mL; in series [2] (read-out: Cmax), 200 nM. Further, the half-life in [4] is more than 4 h. For the same molecule, the Activity entry in series [5] and in series [16] was “Active; Compound Showed Maximum Degradation” in each case. Besides, the inhibition result in [6] and in series [8] was “inactive” throughout. For the same molecule, the Emax in [7] was 89%. Besides, the outcome in [9] was inactive. The result in series [10], in series [13] and in [15] was Active. Moreover, the half-life at 10 µM in series [11] was more than 1 h. The molecule also showed a DC50 in [12] of 310 nM. The inhibition result in series [14] was “Active”.

The term pIC50 denotes the negative decadic logarithm of the IC50, by convention in mol/L. One may read the Cmax as the peak of the concentration-time curve. In general, half-life refers to how long it takes for the measured level to halve. The term Emax denotes the maximal effect, on the per cent scale that the assay sets. What is called DC50 is the concentration giving 50% degradation.
